# From patent US4076659A, “L-Val^10 -somatostatin and intermediates thereto” (Eli Lilly and Company, priority 1976, dated 1978)
# Bridge positions count the residues as written; N and C are the ends. Peptide text beside a SMILES is read from it.
# Test system: release of growth hormone
# Experiment: Inhibition of growth hormone release in sodium pentobarbitol-stimulated rats (modified Brazeau method)
# Type: in vivo, mature male Spraque-Dawley rats
# Conditions: subcutaneously, sodium pentobarbitol-stimulated GH secretion, vs saline control group
# Experimental: The product from Example 4 was tested for its activity in inhibiting the release of growth hormone. The procedure which was employed is carried out using mature male Spraque-Dawley rats (Laboratory Supply Company, Indianapolis, Indiana). The test is a modification of the method of P. Brazeau, W. Vale, and R. Guilleman, Endocrinology, 94 184 (1974). In this assay, five groups of eight rats each were employed. First, sodium pentobarbitol was administered to all 40 rats to stimulate growth hormone secretion. One of the groups of eight rats is the control group and received only saline. Two of the groups received somatostatin, one at 2 μg./rat, subcutaneously, and the other at 50 μg./rat, subcutaneously. The other two groups received L-Val^10 -somatostatin, one at 2 μg./rat, subcutaneously and the other at 50 μg./rat, subcutaneously. The degree of inhibition of serum growth hormone concentration then was determined with respect to the control group, and the relative activities of L-Val^10 -somatostatin and somatostatin itself were compared.
structure (smiles),measurement,setting,value
CC(C)[C@@H]1NC(=O)[C@H](CCCCN)NC(=O)[C@H](Cc2c[nH]c3ccccc23)NC(=O)[C@H](Cc2ccccc2)NC(=O)[C@H](Cc2ccccc2)NC(=O)[C@H](CC(N)=O)NC(=O)[C@H](CCCCN)NC(=O)[C@@H](NC(=O)CNC(=O)[C@H](C)N)CSSC[C@@H](C(=O)O)NC(=O)[C@H](CO)NC(=O)[C@H]([C@@H](C)O)NC(=O)[C@H](Cc2ccccc2)NC1=O [L-Val^10 -somatostatin] (H-AGCKNFFWKVFTSC-OH; disulfide 3-14),diminished serum growth hormone concentration over control,2 μg./rat,49%
same,diminished serum growth hormone concentration over control (inhibition),50 μg./rat,72%
